# According to ChEMBL document CHEMBL5674850, “ASAP - Solubility” (2024):
# “And” between values parts separate entries of the source, which are not always exact repeats. Equal values may be shown once.
# Assay: Kinetic solubility of compound by measuring concentration at pH 7.4 in saturated PBS buffer by UV LCMS/MS using calibration curves. The assay has been performed by Enamine biological services, Bienta Ltd.The protocol is publicly available: dx.doi.org/10.17504/protocols.io.j8nlk8y41l5r/v1
# Format: physicochemical
# Settings: PBS buffer
row,SMILES,solubility kinetic
1,O=C(NCC(F)F)[C@H](Nc1ccc2c(c1)CNC2)c1cc(Br)cc2nc[nH]c12,≥ 400 µM
2,O=C(Nc1cc2c(c(C3=CCOCC3)c1)CNC2)c1cc(F)cc2[nH]ncc12,157 µM
3,CC(C)n1cc2c(C(=O)Nc3ccc4c(c3)CNC4)cc(Cl)cc2n1,181 µM
4,CCCCNC(=O)[C@H](Nc1ccc2c(c1)CNC2)c1cc(Cl)cc(C2CC2)c1,379 µM
5,O=C(NCC(F)F)[C@H](Nc1cnc2c(c1)CNC2)c1cc(Cl)cc(C2CC2)c1,362 µM
6,CNC(=O)[C@H](Nc1cc(CN)cc(-c2nn[nH]n2)c1)c1cc(Cl)cc(C2CC2)c1,352 µM
7,NCCc1ccc(NC(=O)c2cc(Cl)cc(NC(=O)OCc3ccccc3)c2)cc1,88 µM
8,O=C(O)Cn1ncc2cc(-c3cc(Cl)cc(NC(=O)OCc4ccccc4)c3)ccc21,131 µM
9,CO[C@H]1C[C@H](n2ncc3c(C(=O)Nc4ccc5c(c4)CNC5)cc(Cl)cc32)C1,340 µM
10,O=C(Nc1cc(Cl)cc(C(=O)Nc2ccc3c(c2)CNC3)c1)OCc1ccccc1,35 µM
11,O=C(Nc1cc(Cl)cc(-c2ccc3[nH]c(C(=O)O)cc3c2)c1)OCc1ccccc1,356 µM
12,CNC(=O)c1cc(Cl)ccc1NS(=O)(=O)c1ccc(Oc2ccccc2Cl)cc1,25 µM
13,NCc1cccc([C@@H]2C[C@H]2c2cc(Cl)cc(NC(=O)OCc3ccccc3)c2)c1,50 µM
14,COCCNC(=O)[C@H](Nc1ccc2c(c1)CNC2)c1cc(Cl)cc(C2CC2)c1,320 µM
15,CNC(=O)[C@H](Nc1cc(CN)cc(C(=O)O)c1)c1cc(Cl)cc(C2CC2)c1,335 µM
16,NCc1cccc(NC(=O)c2cc(Cl)cc(NC(=O)OCc3ccccc3)c2)c1,89 µM
17,O=C(Nc1cc2c(c(C3=CCS(=O)(=O)CC3)c1)CNC2)c1cc(F)cc2[nH]ncc12,141 µM
18,O=C(Nc1cc(Cl)cc(C(=O)Nc2cccc(C3CCNCC3)c2)c1)OCc1ccccc1,126 µM
19,O=C(Nc1ccc2c(c1)CNC2)c1cc(Cl)cc2cn[nH]c12,184 µM
20,O=C(Nc1cc(Cl)cc(C(=O)Nc2n[nH]c3c2CNC3)c1)OCc1ccccc1,26 µM
21,O=C1Cc2c(cccc2C(=O)Nc2ccc3c(c2)CNC3)N1,152 µM

row,SMILES,solubility kinetic
1,NCc1cc(C(=O)O)cc([C@@H]2C[C@H]2c2cc(Cl)cc(NC(=O)OCc3ccccc3)c2)c1,52 µM
2,CCCC[C@@H](NC(=O)OC(C)(C)C)C(=O)N[C@@H](C(=O)NCc1ccc(CN)cc1)c1ccc(OCc2ccccc2)cc1,143 µM
3,NCc1cccc(NC(=O)c2cc(Cl)cc(CN)c2)c1,375 µM
4,CSc1cc2c(cc1NC(=O)c1cc(F)cc3[nH]ncc13)CNC2,392 µM
5,NCc1cccc(NC(=O)c2cc(OCc3ccccc3)ccc2CNC(=O)OCc2ccccc2)c1,14 µM
6,O=C(NCCCF)[C@H](Nc1ccc2c(c1)CNC2)c1cc(Cl)cc(C2CC2)c1,394 µM
7,Cn1ncc2c(C(=O)Nc3ccc4c(c3)CNC4)cc(Br)cc21,392 µM
8,N#C[C@H](Nc1cccc(-c2nn[nH]n2)c1)c1cc(Cl)cc(NC(=O)OCc2ccccc2)c1,344 µM
9,O=C(Nc1ccc2c(c1)CNC2)c1cc(F)cc2[nH]c(-c3ccc(F)cc3)nc12,6 µM
10,COc1cc(Cl)cc([C@H](Nc2ccc3c(c2)CNC3)C(=O)NCC(F)F)c1,≥ 400 µM
11,CNC(=O)[C@H](Nc1ccc2c(c1)CNC2)c1cc(Cl)cc2[nH]c(-c3ccccc3)nc12,178 µM
12,O=C(Nc1cc2c(c(-c3c[nH]c(=O)c(F)c3)c1)CNC2)c1cc(F)cc2[nH]ncc12,66 µM
13,NCc1cccc(NC(=O)C[C@@H](NC(=O)OCc2ccccc2)c2ccc(OCc3ccccc3)cc2)c1,17 µM
14,O=C(NCC(F)F)[C@H](Nc1ccc2c(c1)CNC2)c1cc(Cl)cc2c1CCC2,≥ 400 µM
15,CC(C)NC(=O)[C@H](Nc1ccc2c(c1)CNC2)c1cc(Cl)cc2[nH]c(-c3ccccc3)nc12,154 µM
16,C=CC[C@H]1NCc2cc(NC(=O)c3cc(F)cc4[nH]ncc34)ccc21,356 µM
17,CNC(=O)c1cc(Br)cc([C@H](Nc2ccc3c(c2)CNC3)C(=O)NCC(F)F)c1,≥ 400 µM
18,Cc1cc([C@H](Nc2ccc3c(c2)CNC3)C(=O)NCC(F)F)cc(C(F)(F)F)c1,≥ 400 µM
19,CNC(=O)[C@H](Nc1cc(Cl)cc(NC(=O)OCc2ccccc2)c1)c1cccc(-c2nn[nH]n2)c1,333 µM
20,O=C(O)COc1cccc(NC(=O)c2cc(Cl)cc(NC(=O)OCc3ccccc3)c2)c1,360 µM
21,Nc1ccncc1-c1cc(F)cc(C(=O)Nc2ccc3c(c2)CNC3)c1,392 µM

row,SMILES,solubility kinetic
1,O=C(Nc1ccc2c(c1)CNC2)c1cc(Br)cc2[nH]c(-c3ccccc3)nc12,≤ 2 µM
2,O=C(Nc1ccc2c(c1)CNC2)c1cc(Cl)cc2c1CCC2,335 µM
3,N#Cc1cccc(-c2nc3c(C(=O)Nc4ccc5c(c4)CNC5)cc(F)cc3[nH]2)c1,3 µM
4,CCOc1cccc(-c2ccc(S(=O)(=O)Nc3ccc(Cl)cc3C(=O)O)cc2)c1,392 µM
5,O=C(Nc1ccc2c(c1)CNC2)c1ccc2[nH]cc(C3CCNCC3)c2c1,377 µM
6,O=C(O)c1cc(Cl)ccc1NS(=O)(=O)c1ccc(Oc2ccccc2Cl)cc1,369 µM
7,Cn1cc2c(C(=O)Nc3ccc4c(c3)CNC4)cc(F)cc2n1,309 µM
8,O=C(NCC(F)F)[C@H](Nc1cc2c(cc1Br)CNC2)c1cc(Cl)cc(C2CC2)c1,333 µM
9,NCc1cccc(NC(=O)c2cccn3cc(CN4CCCC4)nc23)c1,332 µM
10,O=C(O)c1cc(Cl)ccc1S(=O)(=O)NC1CCN(c2nc(C3CC3)cc(C(F)(F)F)n2)CC1,380 µM
11,Cc1c(C(=O)Nc2cc(-c3cccnc3)ccn2)cc(C2CC2)n1C,176 µM
12,CNC(=O)[C@H](Nc1cccc(-c2nn[nH]n2)c1)c1cc(Cl)cc2[nH]ncc12,347 µM
13,COc1cc(C#N)cc([C@H](Nc2ccc3c(c2)CNC3)C(=O)NCC(F)F)c1,381 µM
14,Cn1ncc2c(C(=O)Nc3ccc4c(c3)CNC4)cc(Cl)cc21,≥ 400 µM
15,O=C(Nc1cc(Cl)cc(C(=O)Nc2cccc(-c3nnn[nH]3)c2)c1)OCc1ccccc1,65 µM
16,CC(C)CNC(=O)c1cc(Cl)c(F)cc1NS(=O)(=O)c1ccc(Oc2ccccc2Cl)cc1,4 µM
17,Cc1cc(-c2ccc([C@@H](NC(=O)OCc3ccccc3)C(=O)Nc3cccc(CN)c3)cc2)cs1,8 µM
18,N#CCCNC(=O)[C@H](Nc1ccc2c(c1)CNC2)c1cc(Cl)cc(C2CC2)c1,374 µM
19,CN(c1ccc2c(c1)CNC2)[C@H](C(=O)NCC(F)F)c1cc(Cl)cc(C2CC2)c1,172 µM
20,O=C1Cc2cc(C(=O)Nc3ccc4c(c3)CNC4)ccc2N1,136 µM
21,C=CC[C@H](Nc1cccc(-c2nn[nH]n2)c1)c1cc(Cl)cc(NC(=O)OCc2ccccc2)c1,332 µM

row,SMILES,solubility kinetic
1,O=C(/C=C/c1ccccc1)C(=O)N1CCN(CCc2ccccc2)CC1,239 µM
2,OCC#C[C@H](Nc1ccc2c(c1)CNC2)c1cc(Cl)cc2[nH]ncc12,135 µM
3,COc1cc(Cc2c(-c3ccc(F)cc3)noc2C)nc(N2CCNCC2)n1,325 µM
4,O=C(Nc1ccc2c(c1)CNC2)c1cc(Cl)cc2c1cnn2C1CCC1,172 µM
5,Cc1cc(OCc2ccccc2)ccc1NS(=O)(=O)c1ccc(Cl)cc1C(=O)O,394 µM
6,CNC(=O)[C@H](Nc1ccc2c(c1)CNC2)c1cc(Cl)cc(C2CC2)c1,358 µM
7,c1ccc2sc(C3CCN(Cc4c[nH]c5ccccc45)CC3)nc2c1,119 µM
8,NCc1cccc(NC(=O)CN(C(=O)OCc2ccccc2)c2ccc(OCc3ccccc3)cc2)c1,56 µM
9,O=C(O)c1cc(Cl)ccc1NS(=O)(=O)c1ccc(-c2ccccc2Cl)cc1,397 µM
10,O=C(N[C@H]1[C@H]2CCCCC[C@H]2[C@H]1C(=O)Nc1cccc(C2CCNCC2)c1)OCc1ccccc1,49 µM
11,N#C[C@H](Nc1cccc(C(=O)O)c1)c1cc(Cl)cc2[nH]ncc12,112 µM
12,N#C[C@H](Nc1ccc2c(c1)CNC2)c1cc(Cl)cc2[nH]ncc12,297 µM
13,O=C(Nc1ccc2c(c1)CNC2)c1cccc2[nH]c(C(F)(F)F)cc12,372 µM
14,CC(C)c1nc2c(C(=O)Nc3cccc(CN)c3)cccc2[nH]1,316 µM
15,CNC(=O)c1cc(Cl)c(F)cc1NS(=O)(=O)c1ccc(Oc2ccccc2Cl)cc1,49 µM
16,O=C(Nc1cc2c(cc1Br)CNC2)c1cc(F)cc2[nH]ncc12,47 µM
17,NCc1cccc(CNC(=O)[C@@H](NC(=O)OCc2ccccc2)c2ccc(OCc3ccccc3)cc2)c1,78 µM
18,O=C(Nc1cc(Br)c2c(c1)CNC2)c1cc(F)cc2[nH]ncc12,4 µM

# Same assay, conditions: buffer
row,SMILES,Solubility (mean)
1,CC(C)NC(=O)[C@H](Nc1ccc2c(c1)CNC2)c1cc(Cl)cc2[nH]c(-c3ccccc3)nc12,134 µM
2,O=C(NCC(F)F)[C@H](Nc1ccc2c(c1)CNC2)c1cc(Cl)cc(C2CC2)c1,367 µM and 326 µM

# Same assay, conditions: buffer, ph 7.5
row,SMILES,Solubility (mean)
1,O=C(NCC(F)F)[C@H](Nc1ccc2c(c1)CNC2)c1cc(Cl)cc(C2CC2)c1,139 µM
